Laboratory results from PMC11024016 (Pharmaceutical Research, 2024).

Legend:
[1] = Maximum tolerated dose of TPT in mice; conditions: mouse, in vivo, intravenous, 5 consecutive days, authors' previous study (data not shown)
[2] = tested on: Ser139-phosphorylated human H2AX (γhH2AX) in the tumor; test: DNA damage in tumor (γH2AX) of ES-2 tumor-bearing mice; assay type: in vivo; conditions: TPT 2 mg/kg/day for 5 consecutive days
Method: Mice in the TPT group were euthanized at 3 and 24 h after each dosing and 3, 5, and 7 days after the last dosing (n = 3). Samples were also harvested at 0.5 h after the first and last TPT dose (n = 3). Mice in the vehicle control group were administered sucrose/histidine buffer intravenously and were euthanized at 3 h, 3, 7, and 11 days post-dosing (n = 2 or 3). The levels of Ser139-phosphorylated human H2AX (γhH2AX) and total hH2AX in the tumor, as well as Ser139-phosphorylated mouse H2AX (γmH2AX) and total mH2AX in mouse bone marrow, were quantified using a previously established method.

[3] = Pharmacokinetics of total topotecan in plasma, tumor and BM-ISF of ES-2 tumor bearing mice; assay type: in vivo, BALB/c nude mice; conditions: single i.v. 2 mg/kg
Method: (§1) Sucrose/histidine buffer and saline (Otsuka Pharmaceutical Factory, Tokushima, Japan) were used as the diluent for FF-10850 and TPT, respectively. After blood sample collection, mice were euthanized at the corresponding time points, and tumor and bone marrow tissues were collected. Plasma was obtained by centrifuging the blood samples at 800 × g for 15 min at 4 °C. Tumor tissues, placed on ice, were minced into fine pieces with scissors. Bone marrow tissues were harvested from the femur and tibia. After cutting the ends, the bones were placed in a microtube and centrifuged at 1,200 × g for 1 min at 4 °C. Unencapsulated topotecan was immediately separated from the plasma and tissue samples and processed.
(§2) To prepare the samples, methanol with 0.1% formic acid plus topotecan-d6 was added to plasma samples, while methanol with 0.1% formic acid was used for tumor and BM-ISF samples. The samples were thoroughly mixed and centrifuged at 11,300 × g for 3 min. The supernatants were added to an equal volume of water with 0.1% formic acid, and the mixture was injected into the liquid chromatographic–triple quadrupole mass spectrometric (LC–MS/MS) system. The ultra-performance liquid chromatography (UPLC) conditions for topotecan analysis were as follows: system, ACQUITY UPLC (Waters, Milford, MA); column, ACQUITY UPLC BEH C18 Column (1.7 µm, 2.1 mm × 50 mm, Waters); mobile phase A, 0.1% formic acid; mobile phase B, methanol with 0.1% formic acid, gradient (initial to 2.0 min, linear increase from 20 to 50% of B; 2.0 to 3.0 min, 95% B, and 3.0 to 4.0 min, 20% B); flow rate, 0.4 mL/min; column temperature, 40 °C. A Triple Quad 5500 (AB Sciex, Framingham, MA) mass spectrometer equipped with Analyst software (AB Sciex) and positive ion electrospray ionization in a multiple reaction monitoring (MRM) mode were used. Quantification was performed using MRM with the transitions of m/z at 422.0 → 377.1 for topotecan and 428.1 → 377.1 for topotecan-d6.
(§3) Pharmacokinetic parameters, including half-life (T1/2), initial concentration at t = 0 (C0), the area under the concentration versus time curves from 0 to infinity (AUCinf), clearance (CL), mean residence time (MRT), and the volume of distribution (Vd) of total and unencapsulated topotecan in plasma, tumor tissue, and BM-ISF were analyzed using noncompartmental analysis with Phoenix WinNonlin version 8.2 pharmacokinetic software (Certara, Princeton, NJ). The AUCs were calculated using the linear up/log down rule.

[4] = Pharmacokinetics of unencapsulated topotecan in plasma, tumor and BM-ISF of ES-2 tumor bearing mice; assay type: in vivo, BALB/c nude mice; conditions: for AUC(0-inf) / Cmax / MRT / half-life: BALB/c nude, mouse, iv
Method: as §1
For the separation of unencapsulated topotecan in plasma, plasma samples diluted with PBS were ultracentrifuged at 200,000 × g for 1 h at 4 °C to precipitate the liposomes. The supernatants were collected as samples for measuring unencapsulated topotecan in plasma. To separate unencapsulated topotecan in tumor tissues, the tissues were minced as described and homogenized in PBS containing topotecan-d6 as an internal standard (125 mg tissue/mL PBS), with zirconia balls using Micro Smash MS-100R (Tomy Seiko, Tokyo, Japan). The homogenate was then ultracentrifuged at 200,000 × g for 1 h at 4 °C, and the supernatants were collected as samples for measuring unencapsulated topotecan in the tumor tissue. For the separation of unencapsulated topotecan in BM-ISF, a bone marrow tissue suspension was prepared by adding PBS containing topoteacan-d6 to the tissue (25 mg tissue/mL PBS) and suspending it by pipetting. After removing cellular components from the suspension by centrifugation at 1,200 × g for 3 min at 4 °C, the supernatant was collected as the BM-ISF sample. These samples were ultracentrifuged at 200,000 × g for 1 h at 4 °C, and the supernatants were collected to measure unencapsulated topotecan in the BM-ISF.
as §2, §3

[5] = BALB/c nude, mouse, BM-ISF (bone marrow interstitial fluid), iv, BM-ISF, ES-2 tumor bearing mice
[6] = BALB/c nude, mouse, iv, plasma, ES-2 tumor bearing mice
[7] = BALB/c nude, mouse, iv, tumor, ES-2 tumor bearing mice
[8] = unencapsulated topotecan, BM-ISF, single i.v. 2 mg/kg, ES-2 tumor bearing mice
[9] = unencapsulated topotecan, plasma, single i.v. 2 mg/kg, ES-2 tumor bearing mice
[10] = unencapsulated topotecan, tumor, single i.v. 2 mg/kg, ES-2 tumor bearing mice

CC[C@@]1(O)C(=O)OCc2c1cc1n(c2=O)Cc2cc3c(CN(C)C)c(O)ccc3nc2-1 [TPT, Topotecan]
MTD at 5 days [1]: 2 mg/kg/day
human γH2AX levels in the tumor (DNA damage) ([2]; FF-10850 single i.v. 2 mg/kg): comparable DNA damage
time γH2AX levels remained elevated in tumor after each dose [2]: at least 24 h
AUC(0-inf) [3, 5]: 862 ng·h/mL
Cmax [3, 5]: 1710 ng/mL
MRT [3, 5]: 39.5 min
half-life ([3]; BALB/c nude, mouse, iv, BM-ISF (bone marrow interstitial fluid), ES-2 tumor bearing mice): 41.4 min
AUC(0-inf) [3, 6]: 140 ng·h/mL
C0 [3, 6]: 406 ng/mL
MRT [3, 6]: 23.3 min
Vd [3, 6]: 5.87 L/kg
clearance [3, 6]: 238 mL/min/kg
half-life [3, 6]: 23.9 min
Cmax [3, 7]: 546 ng/g
MRT [3, 7]: 61.2 min
half-life [3, 7]: 55.7 min
AUCinf in BM-ISF relative to that in plasma [3]: 6 times
AUCinf ratio (Tumor/BM-ISF) ([3]; ES-2 tumor bearing mice): 0.675
AUCinf ([3]; tumor, ES-2 tumor bearing mice): 582 ng∙h/g tissue
AUC(0-inf) [4, 8]: 822 ng·h/mL
Cmax [4, 8]: 1700 ng/mL
MRT [4, 8]: 36.4 min
half-life [4, 8]: 43.7 min
AUC(0-inf) [4, 9]: 97.3 ng·h/mL
Cmax [4, 9]: 198 ng/mL
MRT [4, 9]: 34.6 min
half-life [4, 9]: 26.3 min
Cmax [4, 10]: 646 ng/g
MRT [4, 10]: 62.4 min
half-life [4, 10]: 58.3 min
difference between total and unencapsulated topotecan AUCs ([4]; in plasma and each tissue): ≤ 1.5 fold
AUCinf ratio (Tumor/BM-ISF) ([4]; unencapsulated topotecan, single i.v. 2 mg/kg, ES-2 tumor bearing mice): 0.833
AUCinf [4, 10]: 684 ng∙h/g tissue
